Series [1] concerns Herpes Simplex Type II (Viral Strain HG52). The experiment in a line: Herpes Simplex Type II Plaque Reduction Assay. The format is cell-based. As to conditions: for Plaque Count: replicate counts; for EC50: HSV type II. The text has this:
(§1) For testing the N-Bu-DNJ against HSV, the HSV Type II strain HG52 described by Timbury, J. Gen. Virol. 13, 373-376 (1971), and Davis et al., Analyst 110, 605-609 (1985), is useful. For testing against CMV, the prototype CMV ADl69 strain described, for example, by Tyms et al., J. Gen. Virol. 68, 1563-1573 (1987), and in U.S. Pat. No. 4,743,560, is useful. Another useful CMV strain is the Towne strain described by Glazer et al., Ann. Inter. Med. 91, 676-683 (1979).
(§2) Human embryo fibroblast cells (HEF) were grown in Eagles minimal essential medium supplemented with 7% fetal calf serum (FCS), 9 mM sodium bicarbonate and 7 mM HEPES buffer. In maintenance medium the supplements were adjusted to 2% FCS, 13 mM sodium bicarbonate and 14 mM HEPES. CMV, strain Towne, and HSV type II, strain […], were used in the following tests. CMV virus stocks were prepared and stored by technique as previously described by Tyms & Williamson, Nature 297, 690-691 […]. Herpes virus stocks were prepared and stored by technique as previously described by Davis et al., Analyst 110, 605-609 (1985). The HEF were human embryonic lung fibroblasts, strain MRC-5, as described by Tyms and Williamson, Nature 297, 690-691 (1982).
(§3) For plaque reduction assays, 24-well culture trays were seeded with HEF cells. Confluent monolayers were infected with virus to give initially about 100 plaque-forming-units (p.f.u.) per well. After a one hour absorption period the inocula were replaced by l.5ml of a maintenance medium incorporating 0.5% low gelling temperature agarose, supplemented with various concentrations of test compound. For tests with CMV, infected monolayers were fixed with 5% formalin in phosphate buffered saline (PBS) at 6-8 days post-infection and stained with 0.3% methylene blue after removal of the overlay; whereas, tests with HSV were conducted in the same manner but with the monolayer fixing at 2 days post infection. The mean plaque number was calculated from a multiple series of counts (e.g., duplicate, triplicate or quadruplicate), converted to a percentage of untreated controls and values plotted against the log10 drug concentration. The 50% effective dose (ED50) was determined from best line fits for the curves.
The mean plaque numbers determined on HEF cells exposed to varying amount of N-Bu-DNJ, N-Me-DNJ, N-He-DNJ, 2-deoxy-D-glucose and castanospermine were converted to percentage values (plaque count in presence of drug divided by mean value of untreated controls×100), and plotted as a function of drug concentration [drug (mM)].
The 50% effective dose (ED50)--that amount of drug needed to reduce plaque count by 50%--was calculated to give the following values: […]
In general terms: Plaques are areas of infected cells; plaque reduction assays count them against a control.

Series [2] relates to HEF cells (strain MRC-5). The format is cell-based, human. As to the method:
Triplicate titer plates were seeded with human embryo fibroblast (HEF) cells (about 7.5×10^3 cells/well), and after 4 days of growth in the absence of presence of 2-deoxy-D-glucose and N-Bu-DNJ were counted and compared to a control without test compound.

Series [3] has as its system Cytomegalovirus (Viral Strain Towne). The experiment in a line: Cytomegalovirus Plaque Reduction Assay. The format is cell-based. Particulars: for Plaque Count: replicate counts.
Excerpt: as §1, §2, §3
In a similar manner, the Effective Dosage Values (ED50) were determined from the curves of FIG. 1. A least squares fit of the data of FIG. 1 to an equation of the form: y=mx+b gave the following values: […]
From these values, a 50% effective dose (ED50) was calculated to give the following values: […]

For series [4] the test system is unchanged. In words: Yield Reduction Assay against infections with CMV (Towne strain). In kind it is cell-based. As to conditions: for activity at 500 µM / activity at 2000 µM: read-out: % Virus Control. As for the experimental part: Antiviral activities of N-Bu-DNJ and comparative test compounds against infections with CMV (Towne strain) were also measured by the yield reduction assay as follows:
HEF cells (MRC-5) were infected at high multiplicity of infection (about one p.f.u. per cell) and incubated with various concentrations of the test compounds for 5 and 6 days post infection. The level of infectious virus shed into the extracellular fluid was determined at 5 and 6 days by plaque assays as described above, using serial dilution of extracellular fluid to bring readings on scale.
In Table VI, to calculate plaque-forming units (PFU) of the maintenance medium overlayering HEF cells, the plaque count at the most sensitive dilution (from Table V) was multiplied by dilution value and then by 5 (0.2 ml sample volumes used in test) to give PFU (per ml maintenance medium). (e.g. calculation of drug control: 31×10^3 ×5=1.6×10^5 PFU).

Series [5] concerns HIV. Particulars: Tyms et al., Lancet, 1987; cited from earlier work.
Series [6] deals with HEF cells (strain MRC-5). In words: HEF cell growth / monolayer appearance in HSV type II plaque reduction assay. In kind it is cell-based, human. As for the experimental part:
as §3

Where [7] appears, read: Human betaherpesvirus 5, MRC5, 120 h.
Setting [8] is: Human betaherpesvirus 5, MRC5, 144 h.

These results are taken from patent publication US4957926A, “Method of treating herpesviruses” (priority 1988, dated 1990).

Where two headings read alike, the source gives them in different places.

As to `O=CC[C@@H](O)[C@H](O)[C@H](O)CO` [2-Deoxy-D-glucose, 2-deoxy-D-glucose, reference compound], in series [1] (2.5 mM), the “inhibitory effect on herpesvirus type II (in words)” value is reported as “no inhibitory effect was observed”. Also, the activity at 2500 µM in series [1] (HEF, Table II, 2.5 mM, read-out: % Virus control) is not below 100%. Also, the activity at 5000 µM in series [1] (HEF, Table II, 5.0 mM, read-out: % Virus control) was 77%. For the same compound, in series [1] (Table II, 2.5 mM), the “Plaque Count Avg” value was 91 and the “Plaque Count” value is on record as 94,88. Also, in series [1] (Table II, 5.0 mM), the “Plaque Count Avg” value is given as 69 and the “Plaque Count” value is reported as 61,76. The “inhibitory effect on growth of normal cells (in words)” value in series [2] was “substantially inhibits the growth”.
As for `O[C@H]1[C@H](O)[C@@H](O)CN2CC[C@H](O)[C@H]12` [Castanospermine, castanospermine, reference compound], the activity at 250 µM in series [1] (HEF, Table II, 0.25 mM, read-out: % Virus control) came out at 56%; in series [3] (Human betaherpesvirus 5, HEF, Table IV, 0.25 mM, read-out: % Virus control), 81%. Moreover, the activity at 500 µM in series [1] (HEF, Table II, 0.5 mM, read-out: % Virus control) stood at 53%; in series [3] (Human betaherpesvirus 5, HEF, Table IV, 0.50 mM, read-out: % Virus control), 55%; in series [4] (setting [7]), 13%; in series [4] (setting [8]), 6.2%. Besides, the activity at 1000 µM in series [1] (HEF, Table II, 1.0 mM, read-out: % Virus control) worked out at 42%; in series [3] (Human betaherpesvirus 5, HEF, Table IV, 1.0 mM, read-out: % Virus control), 30%. In addition, the activity at 2000 µM in series [1] (HEF, Table II, 2.0 mM, read-out: % Virus control) amounted to 50%; in series [3] (Human betaherpesvirus 5, HEF, Table IV, 2.0 mM, read-out: % Virus control), 12%; in series [4] (setting [7]) it was 1.4%; in series [4] (setting [8]), 0.48%. Further, the activity at 4000 µM in series [1] (HEF, Table II, 4.0 mM, read-out: % Virus control) amounted to 36%. Besides, the “Plaque Count Avg” value is 50 in series [1] (Table II, 0.25 mM); 48 in series [1] (Table II, 0.5 mM); 38 in series [1] (Table II, 1.0 mM); 45 in series [1] (Table II, 2.0 mM); 32 in series [1] (Table II, 4.0 mM); 166 in series [3] (Table IV, 0.25 mM). The “Plaque Count Avg” value was determined as 113 in series [3] (Table IV, 0.50 mM); 61 in series [3] (Table IV, 1.0 mM); 25 in series [3] (Table IV, 2.0 mM). The “Plaque Count” value was 46,54 in series [1] (Table II, 0.25 mM); 52,44 in series [1] (Table II, 0.5 mM); 21,55 in series [1] (Table II, 1.0 mM); 61,28 in series [1] (Table II, 2.0 mM); 33,32 in series [1] (Table II, 4.0 mM); 146,191,184,144 in series [3] (Table IV, 0.25 mM). The “Plaque Count” value in series [3] (Table IV, 0.50 mM) is on record as 108,112,122,111. For the same compound, the EC50 in series [3] (Human betaherpesvirus 5, HEF, CMV, calculated from least squares fit of FIG. 1, read-out: 50% effective dose (ED50)) was 600 µM. Also, the PFU in series [4] (0.5 mM, 5 days HEF growth) is recorded as 2.1 × 10^4 PFU (per ml maintenance medium; in series [4] (0.5 mM, 6 days HEF growth), 2.3 × 10^4 PFU (per ml maintenance medium; in series [4] (2.0 mM, 5 days HEF growth), 2.3 × 10^3 PFU (per ml maintenance medium; in series [4] (2.0 mM, 6 days HEF growth), 1.8 × 10^3 PFU (per ml maintenance medium. Moreover, the “block of HIV growth (in words)” value in series [5] is recorded as “found to block the growth of the AIDS-associated virus HIV”.
For `OC[C@H]1NC[C@H](O)[C@@H](O)[C@@H]1O` [DNJ, 1,5-dideoxy-l,5-imino-Dglucitol], the “block of HIV growth (in words)” value in series [5] was “found to block the growth of the AIDS-associated virus HIV”.
With `CCCCCCN1C[C@H](O)[C@@H](O)[C@H](O)[C@H]1CO` [N-He-DNJ, Nhexyl deoxynojirimycin], the EC50 in series [1] (HEF, tested up to 1.1 mM, read-out: estimated ED50) was approximately 250 µM. The activity at 560 µM in series [1] (HEF, Table III, 0.56 mM, read-out: % Virus Control) is 31.4%. For the same compound, in series [1] (HEF, Table III, 1.12 mM, read-out: % Virus Control), the activity at 1120 µM was 15.7%. The “Plaque Count Avg” value is on record as 16 in series [1] (Table III, 0.56 mM) and 8 in series [1] (Table III, 1.12 mM). Further, the “Plaque Count” value in series [1] (Table III, 2.25 mM) is listed as “trace”; in series [1] (Table III, 4.5 mM) it was “none”. In addition, the “size of plaques compared to control test (in words)” value in series [1] (Table III, 2.25 and 4.5 mM) was “significantly reduced”. The “antiviral activity against HSV type II (in words)” value in series [1] (up to 1.1 mM) is listed as “substantial antiviral activity”. Also, the “HEF cell growth (in words)” value in series [6] (0.56 and 1.12 mM) was “grew normally”. For the same compound, in series [6] (2.25 and 4.5 mM), the “appearance of HEF cell monolayers (in words)” value was “looked thin”. Besides, the “cell growth (in words)” value in series [6] (higher concentrations (above 1.1 mM)) is “cell growth also was retarded”.
With `CN1C[C@H](O)[C@@H](O)[C@H](O)[C@H]1CO` [N-Me-DNJ, Nmethyl deoxynojirimycin], the “antiviral activity against HSV type II (in words)” value in series [1] is “substantially reduce herpesvirus type II infection of HEF cells”. Further, the EC50 in series [1] (HEF, amount of drug needed to reduce plaque count by 50%, read-out: 50% effective dose (ED50)) stood at 2800 µM. In addition, the activity at 280 µM in series [1] (HEF, Table I, 0.28 mM, read-out: % Virus Control) was not below 100%. Further, the activity at 560 µM in series [1] (HEF, Table I, 0.56 mM, read-out: % Virus Control) came to 99%. For the same compound, the activity at 1120 µM in series [1] (HEF, Table I, 1.12 mM, read-out: % Virus Control) worked out at 88%. Also, the activity at 2240 µM in series [1] (HEF, Table I, 2.24 mM, read-out: % Virus Control) stood at 50%. Moreover, in series [1] (HEF, Table I, 4.48 mM, read-out: % Virus Control), the activity at 4480 µM is 18%. Further, the “Plaque Count Avg” value in series [1] (Table I, 0.28 mM) is recorded as 84; in series [1] (Table I, 0.56 mM), 77; in series [1] (Table I, 1.12 mM) it was 69; in series [1] (Table I, 2.24 mM), 39; in series [1] (Table I, 4.48 mM), 14. Also, the “Plaque Count” value is reported as 72,95 in series [1] (Table I, 0.28 mM); 79,74 in series [1] (Table I, 0.56 mM); 63,74 in series [1] (Table I, 1.12 mM); 48,29 in series [1] (Table I, 2.24 mM); 9,19 in series [1] (Table I, 4.48 mM).
